Laboratory results published in patent publication US6066484A, “Purine nucleosidase” (Suntory Limited, priority 1996, dated 2000).

How the values were obtained:
[1] = tested on: Aspergillus niger nucleosidase; conditions: cited from earlier work
purine nucleosidase [2] = assay: Specific activity, Km and Vmax of purine nucleosidase; format: biochemical, Ochrobactrum anthropi; conditions: pH 4.5; for Km / Vmax: 30° C.; for Specific activity: 50° C.
Description: (§1) The reaction solution (200 μl) contained 0.5 mM of adenosine or inosine or 0.25 mM of guanosine as the substrate, 50 mM of acetate buffer at pH 4.5 and a sufficient amount of enzyme. The reaction was initiated by addition of the enzyme, and the reaction was conducted at 50° C. for 5 minutes. The reaction was terminated by addition of 20 μl of 15% perchloric acid, and after centrifugation (35,000 rpm, 10 min) the supernatant was analyzed qualitatively by thin-layer chromatography (TLC) and quantitatively by high-performance liquid chromatography. The analysis methods were as follows.
(2) High-performance liquid chromatography
Eluent: 0.1 M sodium chlorate tetrahydrate, 0.1% (v/v) phosphoric acid
(§2) The specific activity was measured under conditions of 50° C., pH 4.5. The Km and Vmax were measured under conditions of 30° C., pH 4.5. The relative activity was expressed according to the following measurement method.

purine nucleosidase [3] = assay: Substrate specificity of purine nucleosidase by thin-layer chromatography; format: biochemical, Ochrobactrum anthropi; conditions: for decomposition of purine nucleosides (in words): pH 5.5 and 60° C.; for Relative activity: thin-layer chromatography
Description: as §1
(1) Thin-layer chromatography
Plate: Kieselgel 60F254 (Merk)
Developing solution: n-butanol/isopropanol/H2 O/NH4 OH=1:7:2:0.2 (v/v/v/v) (for adenosine and guanosine substrates), n-butanol/acetic acid/H2 O=5:1:1 (v/v/v) (for inosine substrate)
The substrate specificity of the purine nucleosidase was determined by thin-layer chromatography (TLC).
as §2

[4] = tested on: Active fraction 1 (purine nucleosidase activity); assay: Purine nucleosidase activity of active fraction 1 (1st DEAE-Sephacel); format: biochemical, Ochrobactrum anthropi
Description: After suspending 20 g of the wet cells in 40 ml of 10 mM Tris-HCl buffer solution (pH 7.4) (hereunder referred to as "buffer"), they were disrupted in a Dynamill at 4° C. for 10 minutes. After filtering the disrupted cell suspension it was centrifuged (10,000 rpm, 60 min) and the supernatant was used as a cell-free extract. The cell-free extract (250 ml) was dialyzed for 12 hours against 5 L of buffer and then applied to a DEAE-Sephacel column (3×30 cm, 200 ml) which had been equilibrized with the buffer. The adsorbed protein was eluted with an NaCl concentration gradient from 0 to 1.0 M and the active fractions were recovered.
The purine nucleosidase activity at this time was split into two peaks (FIG. 1). Fraction nos. 46 to 69 were collected as the first active fraction and fraction nos. 85 to 101 were collected as the second active fraction.
as §1

[5] = tested on: Active fraction 2 (purine nucleosidase activity); assay: Purine nucleosidase activity of active fraction 2 (1st DEAE-Sephacel); format: biochemical, Ochrobactrum anthropi
[6] = tested on: Bacillus cereus nucleosidase; assay: Bacillus cereus nucleosidase, cell extracts; format: biochemical; conditions: studies by the present inventors
Excerpt: Based on studies by the present inventors using cell extracts, the activity against guanosine is low. Crithidia fasciculata nucleosidase has a high optimum pH of 8.5. Wort also contains various low molecular substances, sugars and proteins, and it has not yet been investigated whether known nucleosidases can actually act on them. Therefore, we screened natural sources for microorganism-derived purine nucleosidases which can utilize adenosine, inosine and guanosine as substrates under conditions of pH 5.0 to 5.5, 50 to 80° C. As a result, high purine nucleosidase activity was found in crushed cell solutions of Ochrobactrum anthropi.

For O=c1[nH]c(=O)c2ncn([C@@H]3O[C@H](CO)[C@@H](O)[C@H]3O)c2[nH]1 [xanthosine], the “decomposition of substrate (in words)” value [1] is given as “cannot decompose”, the Km (purine nucleosidase [2]) is given as 63.8 µM and the Vmax (purine nucleosidase [2]) is given as 68 µmol/min/mg. For the same molecule, the “decomposition of purine nucleosides (in words)” value (purine nucleosidase [3]) was “capable of decomposing” and the Relative activity (purine nucleosidase [3]) was “++++ (>50%)”.

In the case of Nc1ncnc2c1ncn2[C@@H]1O[C@H](CO)[C@@H](O)[C@H]1O [adenosine], the “Specific activity, Active fraction 1” value ([4]; 30° C.) is reported as 0.70 µmol/min/mg, the “Specific activity, Active fraction 1” value ([4]; 50° C.) is reported as 3.6 µmol/min/mg and the Km (purine nucleosidase [2]) is reported as 17.1 µM. The Vmax (purine nucleosidase [2]) was 28.5 µmol/min/mg, the Specific activity (purine nucleosidase [2]) was 292 µmol/min/mg and the “decomposition of purine nucleosides (in words)” value (purine nucleosidase [3]) was “capable of decomposing”. For the same molecule, the Relative activity (purine nucleosidase [3]) was “++++ (>50%)”, the “Specific activity, Active fraction 2” value ([5]; 30° C.) was 0.59 µmol/min/mg and the “Specific activity, Active fraction 2” value ([5]; 50° C.) was 0.45 µmol/min/mg.

For Nc1nc2c(ncn2[C@@H]2O[C@H](CO)[C@@H](O)[C@H]2O)c(=O)[nH]1 [guanosine], the “Specific activity, Active fraction 1” value ([4]; 30° C.) was 0.44 µmol/min/mg, the “Specific activity, Active fraction 1” value ([4]; 50° C.) was 1.5 µmol/min/mg and the Km (purine nucleosidase [2]) was 53.9 µM. The Vmax (purine nucleosidase [2]) was 11.5 µmol/min/mg, the Specific activity (purine nucleosidase [2]) was 63.3 µmol/min/mg and the “decomposition of purine nucleosides (in words)” value (purine nucleosidase [3]) was “capable of decomposing”. The Relative activity (purine nucleosidase [3]) was “++++ (>50%)”, the “activity against substrate (in words)” value [6] was “low” and the “Specific activity, Active fraction 2” value ([5]; 30° C.) was 0.33 µmol/min/mg. The “Specific activity, Active fraction 2” value ([5]; 50° C.) was 0.26 µmol/min/mg.
